According to US20190111168A1, “PHOTOSENSITIZER DISPERSION, AND USE THEREOF” (Universität Regensburg, priority 2016, published 2019):

Experiments:
[1] = time-resolved singlet oxygen luminescence measurements in water and microemulsions; type: physicochemical; set-up: Integral: unit not given here; settings: for production of singlet oxygen following irradiation with electromagnetic radiation: 5 μM in water or microemulsions; for formation of singlet oxygen in the microemulsions used, times higher than in water: microemulsions versus water; for Integral: singlet oxygen luminescence; for Decay period / Formation time / Relative yield with respect to H2O: singlet oxygen; for Relative yield with respect to H2O: ratio of the integrals
Description: The formation of singlet oxygen following irradiation of a photosensitizer-containing microemulsion was determined using time-resolved singlet oxygen luminescence measurements.
For the relevant measurements, 5 μM of the respective photosensitizers used were dissolved in water or in the emulsions E1 to E4.
The time-resolved singlet oxygen luminescence measurements were carried out in accordance with the methods described in S. Y. Egorov et al., 1999.
A tuneable laser system was used to produce the singlet oxygen (model: NT242-SH/SFG, serial number: PGD048) from EKSPLA (Vilnius, […]). A portion of the monochromatic laser beam produced was directed onto a photodiode which acted as a trigger signal for the time-correlated single photon measurement.
The other part of the laser beam was directed onto a 1 cm thick quartz cell (SUPRASIL, Type 101-QS, Hellma GmbH & Co. KG, Mühlheim, DE), in which the solution to be tested had been disposed.
The formation of singlet oxygen was detected by direct detection of the time- and spectrally-resolved singlet oxygen luminescence.
Singlet oxygen luminescence was carried out by means of a nitrogen-cooled photomultiplier (model R5509-42, Hamamatsu Photonics, Hamamatsu, Japan) and a multiscaler (7886S, FAST Corn Tec GmbH, Oberhaching, Germany).
The singlet oxygen luminescence was detected at a wavelength in the range 1200 nm to 1400 nm using interference filters which were disposed in front of the photomultiplier.
The quantum yield was determined in accordance with the method described in Baier J. et al. (“Singlet Oxygen Generation by UVA Light Exposure of Endogenous Photosensitizers”, Biophys. J. 91(4), 2006, pages 1452 to 1459; doi. 10.1529/biophysj.106.082388).
The relative yield of singlet oxygen for each photosensitizer with respect to the quantity of singlet oxygen formed in water was calculated from the ratio of the integrals.

[2] = system: Escherichia coli (E. coli; ATCC Number: 25922); test: phototoxicity measurements (MTT test; colony forming units by Miles and Misra); type: cell-based; settings: for effectiveness against E. coli in a microemulsion compared with water: microemulsion versus water; for reduction in the quantity of E. coli: irradiated
Excerpt: (§1) In order to investigate the phototoxicity of the microemulsions in accordance with the invention, a MTT test was used. Assaying cell vitality using a MTT test is based on the reduction of the yellow, water-soluble dye 3-(4,5-dimethylthiazol-2-yl)-2,5-diphenyltetrazolium bromide (MIT, Sigma-Aldrich Chemie GmbH, Munich, DE) into a blue-violet […] (formazan) which is insoluble in water. MTT is a dye which can pass through membranes, which is metabolized by mitochondrial dehydrogenases in living cells, which in the end leads to the formation of formazan crystals.
(§2) Formazan crystals can no longer pass through the membranes and accumulate in proliferating undamaged cells. After cell lysis and dissolving the crystals, the dye is then quantified by colorimetric measurement at 550 nm in a multi-well spectrophotometer (ELISA reader). The quantity of formazan formed is determined as the optical density (OD). The measured quantity of formazan is directly proportional to the number of proliferating cells, so that this test is suitable for the measurement of the phototoxicity of the microemulsions used. The measured OD can be assigned a cell count by means of a previously determined calibration curve.
(§3) The concentration of the respective photosensitizers TMPyP, SA-PN-01a, SA-PN-02a, SA-PN-24d, FL-AS-H-1a or FL-AS-H-2 in the microemulsions E1 to E4 was 0 μM, 10 μM, 25 μM, 50 μM, 100 μM, 250 μM and 500 μM.
(§4) Furthermore, the respective microemulsions E1 to E4 without photosensitizer were used as a control.
(§5) The phototoxicity measurements were carried out on Escherichia coli (E. coli; ATCC Number: 25922) and Staphylococcus aureus (S. aureus; ATCC Number: 25923), as described by Mosmann (1983). (Mosmann T.: Rapid colorimetric assay for cellular growth and survival: application to proliferation and cytotoxicity assays: J. Immunol. methods. 1983 (65); pages 55-63).
(§6) 25 μL of a suspension of the bacteria used were grown overnight in Müller-Hinton liquid medium (Merck KGaA, Darmstadt, Germany) with an optical density of 0.6 at 600 nm were incubated with 25 μL of the test solution at room temperature for 10 seconds in darkness in a 96-well microtitre plate (Cellstar, Greiner Bio-One, Frickenhausen, Germany).
(§7) Next, the microtitre plate was irradiated for 40 s. For irradiation, the light source Blue V from Waldmann (Villingen-Schwenningen, Germany) was used, which emits light at 380 to 480 nm (emission maximum at approximately 420 nm). The applied power was 20 mW/cm^2.
(§8) For each experiment, three controls were carried out at the same time in order to exclude side effects of the irradiation/photosensitizer (PS) on survival of the bacteria: (i) no PS, only light (=light control), (ii) no light, only PS (=dark control), and (iii) neither light nor PS (=reference control).
(§9) After irradiation had been completed, 75 μL of a 25% by weight SDS solution was added to each well of the microtitre plate and the bacterial cells were lysed overnight at 37° C. in an incubator.
(§10) Finally, the optical density (OD) was determined with the aid of a microtitre plate photometer (model EAR 400 AT, SLT Laborinstruments Austria, Salzburg, AT).
(§11) After lysis of the cells and dissolution of the crystals, the dye could then be quantified in a multi-well spectrophotometer (ELISA-Reader) by colorimetric measurement at 550 nm.
(§12) The determination of the colony forming units was carried out in accordance with the method published by Miles and Misra (Miles, AA; Misra, SS, Irwin, JO (1938 November). “The estimation of the bactericidal power of the blood” The Journal of hygiene 38 (6): 732-49). In this regard, serial dilutions from 10^−2 to 10^−9 of the corresponding bacterial suspension were produced. In each case, 3×20 μL of the corresponding bacterial dilutions were then dropped onto Müller-Hinton plates and incubated at 37° C. for 24 h. Next, the number of surviving colony forming units (CFU) was determined. All of the experiments were carried out three times.

[3] = system: Staphylococcus aureus (S. aureus; ATCC Number: 25923); test: as above; type: cell-based; settings: for effectiveness against S. aureus in a microemulsion compared with water: microemulsion versus water; for reduction in the quantity of S. aureus: irradiated
Excerpt: as §1, §2, §3, §4, §5, §6, §7, §8, §9, §10, §11, §12

[4] = absorption spectrum following irradiation with varying doses of light (degradation of photosensitizer); type: physicochemical; settings: light dose 5.5 J to 990 J
Description: The absorption of the FL-AS-H-1a photosensitizer used in the microemulsions E5 and E6 was determined by recording an absorption spectrum for a wavelength range of 250 nm to 600 nm, as described in Example 1. To this end, the FL-AS-H-2 photosensitizer was dissolved in a concentration of 10 μM in the microemulsions E5 and E6, as well as in water. Furthermore, an absorption spectrum of FL-AS-H-2 in microemulsions E5 and E6 as well as in water was measured following irradiation with varying doses of light. For the irradiation, the light source Blue V from Waldmann, which emits light at 380 to 480 nm (emission maximum at approximately 420 nm) was used. The applied light dose was from 5.5 J to 990 J.

[5] = time-resolved singlet oxygen luminescence measurements in gels; type: physicochemical; settings: final concentration 10 μM
[6] = photosensitizer 5 μM in microemulsion E1
[7] = photosensitizer 5 μM in microemulsion E2
[8] = photosensitizer 5 μM in microemulsion E1 (DMS, SDS/1-pentanol (1:2); water)
[9] = photosensitizer 5 μM in microemulsion E2 (DMS, SDS/1,2-pentanediol (1:2); water)
[10] = 10 μM in one of the microemulsions E1 to E4
[11] = in one of the microemulsions E1 to E4, from a concentration of 25 μM
[12] = 10 μM to 100 μM, both in water and in microemulsions E1 to E4, Blue V 40 s, 20 mW/cm^2
[13] = more than 100 μM in water (concentrated aqueous solutions)
[14] = more than 100 μM to 500 μM in microemulsions

SMILES	production of singlet oxygen following irradiation with electromagnetic radiation [1]	formation of singlet oxygen in the microemulsions used, times higher than in water [1]	Integral ([1]; photosensitizer 5 μM in H2O)	Integral [1, 6]	Integral [1, 7]	Decay period ([1]; photosensitizer 5 μM in H2O)	Formation time ([1]; photosensitizer 5 μM in H2O)	Decay period [1, 6]	Formation time [1, 8]	Decay period [1, 7]	Formation time [1, 9]	Relative yield with respect to H2O ([1]; 5 μM in microemulsion E1)	Relative yield with respect to H2O ([1]; 5 μM in microemulsion E2)	reduction in the quantity of E. coli following irradiation [2, 10]	reduction in the quantity of S. aureus following irradiation [3, 10]	effectiveness against E. coli in a microemulsion compared with water [2]	effectiveness against S. aureus in a microemulsion compared with water [3]	further results
Cc1cc2nc3c(=O)[nH]c(=O)nc-3n(CCN)c2cc1C.Cl [FL-AS-H-1a, 10-(2-aminoeth-1-yl)-7,8-dimethyl-[3H,10H]-benzo[g]pteridine-2,4-dione hydrochloride]	produced singlet oxygen	5 times	366	1752	1695	3.6 μs	3.6 μs	8.6 μs	3.0 μs	6.7 μs	4.0 μs	4.79	4.63	approximately 2 log10 units	approximately 2 log10 units			
Cc1cc2nc3c(=O)n(CCN)c(=O)nc-3n(CCN)c2cc1C.Cl.Cl [FL-AS-H-2, 3,10-bis(2′-aminoeth-1′-yl)-7,8-dimethylbenzo[g]pteridine-2,4-dion-dihydrochloride]																		degradation of the photosensitizer following irradiation ([4]; 10 μM in water, microemulsions E5 and E6, Blue V 380 to 480 nm): degraded both in water as well as in the microemulsions E5 and E6; rate of degradation in water compared with microemulsion E5 or E6 ([4]; 10 μM, Blue V): significantly faster
O=C1C(C[n+]2ccccc2)=Cc2cccc3cccc1c23.[Cl-] [SA-PN-01a]	produced singlet oxygen	7 times	571	4413	3933	3.2 μs	2.5 μs	9.2 μs	1.0 μs	7.4 μs	1.6 μs	7.73	6.89	3 log10 units	3 log10 units	more effective	more effective	reduction in the quantity of E. coli following irradiation [2, 11]: more than 6 log10 units; reduction in the quantity of S. aureus following irradiation [3, 11]: more than 6 log10 units
C[N+](C)(C)CC1=Cc2cccc3cccc(c23)C1=O.[Cl-] [SA-PN-02a, N,N,N-trimethyl-1-(1-oxo-1H-phenalen-2-yl)methanaminium chloride]																more effective	more effective	
CN(CC1=Cc2cccc3cccc(c23)C1=O)C(=N)N.Cl [SA-PN-24d, 1-((1-oxo-1H-phenalen-2-yl)methyl)-1-methylguanidinium chloride]																more effective	more effective	
C[n+]1ccc(-c2c3nc(c(-c4cc[n+](C)cc4)c4ccc([nH]4)c(-c4cc[n+](C)cc4)c4nc(c(-c5cc[n+](C)cc5)c5ccc2[nH]5)C=C4)C=C3)cc1 [TMPyP, 5,10,15,20-tetrakis(1-methyl-4-pyridyl)-porphyrin-tetra-(p-toluenesulphonate), reference compound]	produced singlet oxygen		985	2874	1955	3.8 μs	1.9 μs	8.9 μs	1.7 μs	7.2 μs	2.3 μs	2.92	1.98					destruction of E. coli by the singlet oxygen formed by the irradiation [2, 12]: destroyed; reduction in the quantity of E. coli [2, 13]: 2 log units; reduction in the quantity of E. coli [2, 14]: 5 log10 units; destruction of S. aureus by the singlet oxygen formed by the irradiation [3, 12]: destroyed; reduction in the quantity of S. aureus [3, 13]: 2 log units; reduction in the quantity of S. aureus [3, 14]: 5 log10 units; decay time for the singlet oxygen signal (tD) ([5]; in gel G3): 7.4 μs; rise time for the singlet oxygen signal (tR) ([5]; in gel G3): 2.7 μs; formation of singlet oxygen following irradiation ([5]; in gels G1, G2 and G3): could be detected
